Assay results as given in patent US20170204197A1, “Goodpasture Antigen Binding Protein Detection and Inhibition and its Use in Diabetes” (FibroStatin, S.L., priority 2013, published 2017).

How the values were obtained:
[1] = system: C2Cl2 mouse myoblasts differentiated to myotubes; test: Glucose concentration in media of C2Cl2 myotubes at physiological glucose (FIG. 3); type: cell-based; conditions: initial glucose 115 mg/dL, T12 50 μM, indicated times
Experimental: C2Cl2 mouse myoblasts were differentiated to myotubes in DMEM supplemented with 2% horse serum and penicillin/streptomycin during 10 days, and then incubated in DMEM plus 0.25% horse serum with an initial glucose concentration of 115 mg/dL, in absence or presence of T12 (50 μM) during the indicated times. Glucose concentrations in media were determined with a Glucocard™ G+ meter (Arkray Factory, Inc.). Shown are means±SEM (n=2). […] C2Cl2 mouse myoblasts were differentiated to myotubes in DMEM supplemented with 2% horse serum and penicillin/streptomycin during 10 days, and then incubated in DMEM plus 0.25% horse serum with an initial glucose concentration of 115 mg/dL, in absence or presence of T12 (50 μM) during the indicated times. Glucose concentrations in media were determined with a Glucocard™ G+ meter (Arkray Factory, Inc.). Shown are means±SEM (n=2).

[2] = system: AS160 protein phosphorylated at Ser 318 (P Ser 318 AS160); test: Western blot for AS160 phosphorylated at Ser 318 in A549 lysates (FIG. 2C); type: cell-based; conditions: A549 cells, DMEM:F-12 (315 mg glucose/dL), T12 50 μM, 20 h
Experimental: (§1) FIG. 2. […] A, A549 cells were cultured in DMEM plus 10% fetal bovine serum and penicillin/streptomycin with the indicated concentrations of glucose during 24 h. Then cells were lysed in 25 mM Tris-HCl pH 7.5, 150 mM NaCl, 1% Triton X-100, 0.1% SDS, 1 mM PMSF, 10 μg/mL leupeptin, 20 mM NaF at 4° C. during 30 min. Lysates were cleared by centrifugation at 16,000×g for 5 min (4° C.) and the protein concentration of supernatants was determined (Bio-Rad). […] Development was performed with Amersham ECL Prime Western Blotting Detection Reagent (GE Healthcare Lifesciences) and image acquisition with an ImageQuant LAS 4000 Mini device (GE Healthcare Lifesciences). […] After incubations cells were lysed as in A and protein concentrations in supernatants were similarly assessed. Glucose concentrations in the media were determined at the beginning and at the end of the incubation period with a Glucocard G+ meter (Arkray Factory, Inc.), and glucose uptake by cells was calculated using the protein concentrations of the corresponding lysates for normalization purposes.
(§2) A, A549 cells were cultured in DMEM plus 10% fetal bovine serum and penicillin/streptomycin with the indicated concentrations of glucose during 24 h. […] Lysates were cleared by centrifugation at 16,000×g for 5 min (4° C.) and the protein concentration of supernatants was determined (Bio-Rad). […]

A549 cells = test: Glucose uptake by A549 cells under increased extracellular glucose (FIG. 2B); type: cell-based; conditions: DMEM:F-12 (315 mg glucose/dL), increasing concentrations of T12, 14 h
Experimental: as §1, §2

GPBP = target: T1, GPBP (Homo sapiens, UniProt Q9Y5P4); conditions: from WO 2004/070025, WO 2011/054530, U.S. Pat. No. 8,586,776, WO2014/006020; cited from earlier work
T1 sequence (Q9Y5P4 1-624): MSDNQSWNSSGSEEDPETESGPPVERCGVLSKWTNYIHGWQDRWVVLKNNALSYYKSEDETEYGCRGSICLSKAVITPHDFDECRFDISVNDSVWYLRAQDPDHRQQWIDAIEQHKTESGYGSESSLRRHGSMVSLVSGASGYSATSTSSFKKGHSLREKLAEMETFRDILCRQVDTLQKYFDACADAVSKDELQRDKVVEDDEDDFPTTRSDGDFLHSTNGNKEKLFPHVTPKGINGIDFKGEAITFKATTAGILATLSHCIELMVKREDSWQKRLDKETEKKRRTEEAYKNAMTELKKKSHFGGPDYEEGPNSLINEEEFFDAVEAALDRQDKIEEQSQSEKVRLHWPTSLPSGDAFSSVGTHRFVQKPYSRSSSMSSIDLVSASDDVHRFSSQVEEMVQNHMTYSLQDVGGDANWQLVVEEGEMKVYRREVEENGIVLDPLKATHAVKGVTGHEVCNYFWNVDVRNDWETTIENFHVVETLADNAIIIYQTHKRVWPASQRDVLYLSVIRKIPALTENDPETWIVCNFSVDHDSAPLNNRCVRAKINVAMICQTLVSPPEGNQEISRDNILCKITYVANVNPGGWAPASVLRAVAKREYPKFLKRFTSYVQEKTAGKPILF

With `COc1ccc(-c2ccc(-c3cccc(C)c3)c(C)c2)c(CCC(=O)O)c1` [T12, 3-[4″-methoxy-3,2′-dimethyl-(1,1′;4′,1″)terphenyl-2″-yl]propionic acid] the extracellular glucose levels [1] was “reduced the extracellular glucose levels in a concentration-dependent manner”, the “phosphorylation of AS160 (Ser 318)” value [2] was “induced phosphorylation of AS160” and the glucose uptake (A549 cells) was “progressively enhanced glucose uptake”.
For `COc1cccc2c1C(=O)c1c(O)c3c(c(O)c1C2=O)C[C@@](O)(C(=O)CO)C[C@@H]3O[C@H]1C[C@H](N)[C@H](O)[C@H](C)O1` [doxorubicin], the “inhibition of GPBP kinase activity” value (GPBP) is listed as “inhibit GPBP kinase activity”.
In the case of “Q2: isolated peptide representing 260SHCIE264 and flanking regions (LATLSHCIELMVKR) (SEQ ID NO: 8)”, the “inhibition of GPBP kinase activity” value (GPBP) is listed as “efficiently inhibited GPBP kinase activity”.
